In data set [1] the test system is human umbilical vein endothelial cells (HUVECs). Put plainly: Inhibitory effect on HUVEC cell growth (MTS/PES colorimetry). It counts as cell-based. The following applies: Homo sapiens, 120 h, cultured 5 days, MTS/PES absorbance 490 nm. Here is the method:
Using human umbilical vein endothelial cells (HUVECs), the effect of the fumagillin analog conjugates and the fumagillin analogs on cell growth was evaluated.
The HUVECs were added to M199 medium supplemented with 20% FBS, after which the cells were incubated at 37° C. under 5% CO2. 96-well plates were seeded at 5,000 cells/well in a total volume of 100 μL. The cells were left overnight to attach to the plate. Cells were subcultured a maximum of 15 times before being discarded.
To evaluate the inhibitory activity of the fumagillin conjugate or the fumagillin analog alone on the growth of HUVEC cells, the conjugate or fumagillin analog was dissolved in the required amount of 0.9% saline, vortexed briefly to wet and disperse the solids, followed by vortexing for a total of 30 min. […] The cells were treated with the conjugate solution or fumagillin analog solution at various concentrations ranging from 30 nM to 0.01 nM, and cultured for 5 days at 37° C.
Colorimetry was performed to determine the extent of cell growth by adding 20 μL of MTS/PES reagent to each well, incubation for 4 h at 37° C. followed by measuring the absorbance at 490 nm.

The subject of data set [2] is B16F10 tumor cells. The data set is described as follows: Tumor growth delay in B16F10 mouse melanoma. It counts as in vivo. As to conditions: IV, q3d × 4, BDF1 mice. Here is the method: BDF1 female mice (N=6) with 1×10^6 B16F10 tumor cells positioned subcutaneous in the flank were treated with various fumagillin conjugates of the invention. Tumor growth was monitored in parallel with positive and negative controls of cyclophosphamide and saline respectively. Treatment began when tumors reached an average size of 80-120 mg and tumor volumes were measured two times per week until animals reached an endpoint tumor volume of 2 grams or 45 days, whichever came first. Conjugates were administered as solutions in saline intravenously at dose levels of 30-100 mg/kg (expressed as fumagillin analog equivalents) on a schedule of q3dx4. Treatment outcomes were assessed in terms of percent tumor growth delay (% TGD), (see FIG. 1) defined as the percent increase in median time to endpoint for mice treated with an agent compared to those treated with saline.

Another data set concerns the target human MetAP-2 enzyme (Homo sapiens, UniProt P50579). The data set is described as follows: MetAP-2 inhibition (release of AMC from Met-Gly-Pro-AMC). It counts as biochemical. Here is the method:
The test samples were evaluated for their ability to inhibit human MetAP-2 enzyme. The compounds were added at varying concentrations to human MetAP-2 enzyme (6 nM) in a buffered medium containing 20 mM Hepes, pH 7.4, 100 mM KCl, 0.1 mM Co(II), 10% glycerol, 5 mg/ml of L-Amino acid oxidase, 10 mg/ml of peroxidase, 10 mg/ml of o-dianisidine, and 2 mM of Met-Ser-Ala at 37° C. After 10 minutes incubation the reaction is started by adding the substrate Met-Gly-Pro-AMC to 2 mM and the release of AMC is measured with a Decan Plate reader (Excitation at 345 nm, emission at 445 nm). The kinetic data is recorded at 30 sec intervals for 30 min. Table 1 lists some of the conjugates and compounds tested along with their approximate IC50 values for inhibiting Met-AP2.

Data set [3] is described as follows: Open field activity levels in mice. As to conditions: C57B1/6 mice, 50-100 mg/kg for four weeks; conjugates IV, TNP-470 subcutaneously; versus saline. The format is in vivo, mouse. The procedure:
C57B1/6 female mice (N=8) were housed until they reached 11 weeks of age. Animals were then regularly administered with fumagillin conjugates or TNP-470 and their activity levels monitored in an open field arena. Activity levels were assessed with saline as a control. Conjugates were administered as solutions in saline intravenously at dose levels of 50-100 mg/kg (expressed as fumagillin-analog equivalents) and TNP-470 was administered subcutaneously at dose levels of 50-100 mg/kg. Dosing was performed for four weeks on schedules ranging from q2d to once weekly, and activity levels were observed four times throughout the study: (1) prior to compound administration, (2) after one week of dosing, (3) after two weeks of dosing, and (4) following the final week of dosing. Animals were placed in the open field arena for 10 minutes per trial and their activity monitored in terms of travel distance, peripheral squares crossed, center squares crossed, and rearing events.

Data set [4] has as its system B16F10 tumor cells. Put plainly: Tumor growth delay in B16F10 mouse melanoma. As to conditions: 80 mg/kg fumagillin analog equiv., IV, qod × 4, BDF1 mice. It counts as in vivo.
The mark [5] stands for this setting: 80 mg/kg fumagillin analog equiv.

One may read the IC50 as the point on the concentration scale where inhibition reaches its midpoint.

human MetAP-2 enzyme, sequence (P50579 whole entry): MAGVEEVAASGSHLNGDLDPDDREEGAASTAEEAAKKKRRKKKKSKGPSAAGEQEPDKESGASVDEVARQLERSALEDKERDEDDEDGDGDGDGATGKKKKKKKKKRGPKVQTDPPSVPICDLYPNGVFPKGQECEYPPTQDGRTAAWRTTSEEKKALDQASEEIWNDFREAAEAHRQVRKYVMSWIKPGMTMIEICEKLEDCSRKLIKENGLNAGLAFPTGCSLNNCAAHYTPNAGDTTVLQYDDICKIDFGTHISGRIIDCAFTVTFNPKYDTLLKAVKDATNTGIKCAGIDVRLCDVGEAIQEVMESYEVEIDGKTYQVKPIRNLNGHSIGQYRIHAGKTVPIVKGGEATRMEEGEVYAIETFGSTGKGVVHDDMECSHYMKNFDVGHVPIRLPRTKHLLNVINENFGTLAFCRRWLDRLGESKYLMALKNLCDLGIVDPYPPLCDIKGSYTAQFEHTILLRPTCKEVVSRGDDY

For the molecule `CO[C@H]1[C@H](C2(C)O[C@@H]2CC=C(C)C)[C@]2(CC[C@H]1NC(=O)c1ccc([N+](=O)[O-])cc1)CO2` (stereo partly shown) [Compound 19], the IC50 in data set [1] was below 25 nM. In addition, in the data set with B16F10 tumor cells [2] (40 mg/kg fumagillin analog equiv.), the “% TGD” value is 20-50%.
`CO[C@H]1[C@H](C2(C)O[C@@H]2CC=C(C)C)[C@]2(CC[C@H]1OC(=O)NCc1ccc(N)cc1)CO2` (stereo partly shown) [Compound 8]: the IC50 on human MetAP-2 enzyme was below 10 nM; in data set [1] it was below 25 nM.
In data set [1], `CCOC(=O)CCN1CCN(C(=O)O[C@@H]2CC[C@]3(CO3)[C@@H](C3(C)O[C@@H]3CC=C(C)C)[C@@H]2OC)CC1` (stereo partly shown) [Compound 22] had an IC50 below 25 nM. In the data set on B16F10 tumor cells [2] (30 mg/kg fumagillin analog equiv.), the “% TGD” value is given as 5-20%.
Regarding `CO[C@@H]1[C@H](O)CC[C@]2(CO2)[C@H]1C1(C)O[C@@H]1CC=C(C)C` (stereo partly shown) [Compound 25], the IC50 in data set [1] was above 30 nM. For the same molecule, the “% TGD” value with B16F10 tumor cells [2] (setting [5]) is on record as 20-50%.
Turning to `CO[C@H]1C([C@@]2(C)O[C@@H]2CC=C(C)C)[C@]2(CC[C@H]1OC(=O)NC(=O)CCl)CO2` (stereo partly shown) [TNP-470, reference compound], the IC50 against human MetAP-2 enzyme was below 10 nM. Further, the rearing-event activity levels entry in data set [3] is recorded as “increased rearing-event activity levels”.
In the case of `COC(=O)C(=O)O[C@@H]1CC[C@]2(CO2)[C@@H](C2(C)O[C@@H]2CC=C(C)C)[C@@H]1OC` (stereo partly shown) [Compound 16], in data set [1], the IC50 was above 30 nM. Further, in the data set on B16F10 tumor cells [2] (setting [5]), the “% TGD” value is 20-50%.
On to `CO[C@@H]1[C@H](NC(=O)NC(=O)CSc2ccc(N)cc2)CC[C@]2(CO2)[C@H]1[C@@]1(C)O[C@@H]1CC=C(C)C` [Compound 39], for which the IC50 is below 10 nM at human MetAP-2 enzyme and below 25 nM in data set [1].
The molecule `CO[C@H]1[C@H](C2(C)O[C@@H]2CC=C(C)C)[C@]2(CC[C@H]1OC(=O)NC(=O)CSc1cccc(N)c1)CO2` (stereo partly shown) [Compound 35] showed an IC50 in data set [1] below 25 nM. Further, the “% TGD” value in the data set with B16F10 tumor cells [2] (setting [5]) is on record as 20-50%.
The matching figures for `CO[C@H]1[C@H](C2(C)O[C@@H]2CC=C(C)C)[C@]2(CC[C@H]1OC(=O)N[C@@H](C)c1ccccc1)CO2` (stereo partly shown) [Compound 6]: below 25 nM and 5-20%.
The molecule `CO[C@H]1[C@H](C2(C)O[C@@H]2CC=C(C)C)[C@]2(CC[C@H]1OC(=O)C1CCC(CNC(=O)OCC3c4ccccc4-c4ccccc43)CC1)CO2` (stereo partly shown) [Compound 33] yielded an IC50 in data set [1] above 30 nM. Further, the “% TGD” value in the data set with B16F10 tumor cells [2] (65 mg/kg fumagillin analog equiv.) is listed as 5-20%.
Turning to `CO[C@H]1[C@H](C2(C)O[C@@H]2CC=C(C)C)[C@]2(CC[C@H]1OC(=O)NCCc1ccc(NC(=O)[C@H](C)N)cc1)CO2` (stereo partly shown) [Compound 51], the IC50 against human MetAP-2 enzyme is below 10 nM; in data set [1] it was below 25 nM.
`CO[C@H]1C([C@@]2(C)O[C@@H]2CC=C(C)C)[C@]2(CC[C@H]1OC(=O)N[C@@H](C(N)=O)C(C)C)CO2` (stereo partly shown) [PPI-2458, reference compound]: at human MetAP-2 enzyme, the IC50 is below 10 nM.
In data set [1], `CO[C@H]1[C@H](C2(C)O[C@@H]2CC=C(C)C)[C@]2(CC[C@H]1NC(=O)C13CCC(C(=O)O)(CC1)CC3)CO2` (stereo partly shown) [Compound 40] displayed an IC50 of 25 to 100 nM. For the same molecule, the “% TGD” value in the data set with B16F10 tumor cells [4] was 20-50%.
Turning to `CO[C@H]1[C@H](C2(C)O[C@@H]2CC=C(C)C)[C@]2(CC[C@H]1OC(=O)N1CCN(CCO)CC1)CO2` (stereo partly shown) [Compound 7], the IC50 in data set [1] was below 25 nM. Also, the “% TGD” value in the data set on B16F10 tumor cells [2] (setting [5]) is 5-20%.
For the molecule `CCN1CCN(C(=O)O[C@@H]2CC[C@]3(CO3)[C@@H](C3(C)O[C@@H]3CC=C(C)C)[C@@H]2OC)CC1` (stereo partly shown) [Compound 9], the IC50 in data set [1] is below 25 nM. Further, in the data set on B16F10 tumor cells [2] (100 mg/kg fumagillin analog equiv.), the “% TGD” value is listed as 20-50%.
Take `CO[C@H]1[C@H](C2(C)O[C@@H]2CC=C(C)C)[C@]2(CC[C@H]1OC(=O)N[C@H](C)c1ccccc1)CO2` (stereo partly shown) [Compound 12]: the IC50 in data set [1] is below 25 nM. Further, in the data set with B16F10 tumor cells [2] (setting [5]), the “% TGD” value was 5-20%.
